Assay results taken from US20240262803A1, “COMPOUNDS, COMPOSITIONS AND METHODS OF TREATING DISORDERS” (Chungdu Anticancer Bioscience Ltd, priority 2021, published 2024).
Entries after “also recorded” stand apart in the source; their conditions may differ. Where two headings read alike, the source gives them in different places.

How the values were obtained:
[1] = system: human colon cancer cell line HCT116; assay: Xenograft assay, HCT116; format: in vivo; settings: HCT116 subcutaneous xenograft, Nu/Nu mice, oral gavage twice a day for 9 days, FIG. 4
Procedure: (§1) Xenografts were initiated in immunocompromised (Nu/Nu) mice with the human lung adenocarcinoma cell line NCI-H23 (FIG. 3) and the human colon cancer cell line HCT116 (FIG. 4). Five million cells were injected subcutaneously into each mouse and treatment was initiated when the average tumor volumes reached 150 mm3 (n=5/groups). Tumor-bearing mice were randomized into different groups to receive either vehicle or indicated compounds. The compounds were administered through oral gavage twice a day for 9 days. Day 0 on the x-axis indicates the day that treatment was initiated. For these experiments, all compounds were first dissolved in DMSO and then diluted 1:10 into a mixture containing 50% PEG300 and 49% PBS, 1% Tween 80, pH2.2. 100 ul of drug solution was administered with each dose. Tumor volumes were determined once every three days and are calculated from digital caliper raw data by using the formula: Volume (mm3)=(L×W^2)/2. The value W (Width) is the smaller of two perpendicular tumor axes and the value L (Length) is the larger of two perpendicular axes. Mean tumor volume growth curves and means are calculated for each treatment group.

[2] = system: gastric cancer cell line NCI-N87; assay: MTT assay of cellular proliferation, NCI-N87; format: cell-based; settings: Homo sapiens, read-out: EC50: Concentration that inhibits 50% of proliferation
Procedure, shortened: (§2)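 EC50 values come from optical density at 570 nm of solubilized MTT formazan, added for 3˜4 h after compound exposure. Cells in DMEM with 5% FBS were treated at 1 nM to 10 μM once 20˜30% confluent.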

[3] = system: lung cancer cell line NCI-H23; assay: Minimal effective concentration that elicits polyploidy, NCI-H23; format: cell-based; settings: Homo sapiens, read-out: MECP: Minimal effective concentration that elicits polyploidy
[4] = system: gastric cancer cell line NCI-N87; assay: Minimal effective concentration that elicits polyploidy, NCI-N87; format: cell-based; settings: Homo sapiens, read-out: MECP: Minimal effective concentration that elicits polyploidy
[5] = system: lung cancer cell line A549; assay: Minimal effective concentration that elicits polyploidy, A549; format: cell-based; settings: Homo sapiens, read-out: MECP: Minimal effective concentration that elicits polyploidy
RPEMYC^H2B-GFP cells [6] = assay: Mechanism-informed phenotypic screening assay (mitotic arrest, polyploidy; GE IN-Cell Analyzer 2000); format: cell-based; settings: 20 nM to 20 μM, 24, 48 or 72 hours, read-out: Min. Effective conc. for polyploidy (≥5%)
Procedure, shortened: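 RPEMYC^H2B-GFP cells expressing Histone 2B-EGFP were treated with compounds at 20 nM to 20 μM. Mitotic arrest and DNA content were imaged at 24, 48 or 72 h. Minimal effective concentrations eliciting polyploidy are given as letter bins.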

[7] = system: lung cancer cell line A549; assay: MTT assay of cellular proliferation, A549; format: cell-based; settings: Homo sapiens, read-out: EC50: Concentration that inhibits 50% of proliferation
Procedure, shortened: as §2

[8] = system: colon cancer cell line HCT116; assay: MTT assay of cellular proliferation, HCT116; format: cell-based; settings: Homo sapiens, HCT-116, read-out: EC50: Concentration that inhibits 50% of proliferation
Procedure, shortened: as §2

RPEMYC^H2B-GFP cells [9] = assay: Mechanism-informed phenotypic screening assay (mitotic arrest, polyploidy; GE IN-Cell Analyzer 2000); format: cell-based; settings: 20 nM to 20 μM, 24, 48 or 72 hours, read-out: Mitotic Arrest (≥5%)
[10] = system: human lung adenocarcinoma cell line NCI-H23; assay: Xenograft assay, NCI-H23; format: in vivo; settings: NCI-H23 subcutaneous xenograft, Nu/Nu mice, oral gavage twice a day for 9 days, FIG. 3
Procedure: as §1

SW480 = assay: Minimal effective concentration that elicits polyploidy, SW480; format: cell-based; settings: Homo sapiens, read-out: MECP: Minimal effective concentration that elicits polyploidy
[11] = system: lung cancer cell line NCI-H23; assay: MTT assay of cellular proliferation, NCI-H23; format: cell-based; settings: Homo sapiens, read-out: EC50: Concentration that inhibits 50% of proliferation
Procedure, shortened: as §2

[12] = system: liver cancer cell line T2 HCC; assay: Minimal effective concentration that elicits polyploidy, T2 HCC; format: cell-based; settings: Mus musculus, read-out: MECP: Minimal effective concentration that elicits polyploidy
[13] = system: cervical cancer cell line Hela; assay: Minimal effective concentration that elicits polyploidy, Hela; format: cell-based; settings: Homo sapiens, read-out: MECP: Minimal effective concentration that elicits polyploidy
[14] = system: liver cancer cell line T2 HCC; assay: MTT assay of cellular proliferation, T2 HCC; format: cell-based; settings: Mus musculus, read-out: EC50: Concentration that inhibits 50% of proliferation
Procedure, shortened: as §2

[15] = system: breast cancer cell line MDA-MB-231; assay: MTT assay of cellular proliferation, MDA-MB-231; format: cell-based; settings: Homo sapiens, read-out: EC50: Concentration that inhibits 50% of proliferation
Procedure, shortened: as §2

[16] = system: breast cancer cell line MDA-MB-231; assay: Minimal effective concentration that elicits polyploidy, MDA-MB-231; format: cell-based; settings: Homo sapiens, read-out: MECP: Minimal effective concentration that elicits polyploidy
[17] = system: colon cancer cell line HCT116; assay: Minimal effective concentration that elicits polyploidy, HCT116; format: cell-based; settings: Homo sapiens, HCT-116, read-out: MECP: Minimal effective concentration that elicits polyploidy
[18] = system: cervical cancer cell line Hela; assay: MTT assay of cellular proliferation, Hela; format: cell-based; settings: Homo sapiens, read-out: EC50: Concentration that inhibits 50% of proliferation
Procedure, shortened: as §2

[19] = system: colon cancer cell line SW460; assay: MTT assay of cellular proliferation, SW460; format: cell-based; settings: Homo sapiens, SW480; read-out: EC50: Concentration that inhibits 50% of proliferation
Procedure, shortened: as §2

[20] = system: glioblastoma cell line T98G; assay: MTT assay of cellular proliferation, T98G; format: cell-based; settings: Homo sapiens, read-out: EC50: Concentration that inhibits 50% of proliferation
Procedure: (§3) Six lung cancer cell lines (NCI-H23, NCI-H460, NCI-H596, NCI-H2170, Calu-6 and A549), two colon cancer cell lines (HCT116 and SW460), one breast cancer cell line MDA-MB-231, one gastric cancer cell line NCI-N87, one prostate cancer cell line DU145, one cervical cancer cell line Hela, and one glioblastoma cell line T98G were obtained from ATCC. The T2 HCC cell line was derived from a mouse liver cancer model initiated by a transgene of MYC (Reference). All cell lines were cultured in DMEM (Gibco, Cleveland, TN, USA) supplemented with 5% fetal bovine serum (Gibco), penicillin (100 U/mL)-streptomycin (100 μg/mL) (Gibco, Cat. No. 15140-122), 2 mM L-glutamine (Gibco, 200 mM solution, Cat. No. 25030081), and 1 mM sodium pyruvate (Gibco, 100 mM solution, Cat. No. 11360070) at 37° C. in a humidified incubator that was maintained at 5% CO2.
(§4) The MTT assay measures cellular metabolic activity as a proxy for cell viability and involves the conversion of the water-soluble yellow dye MTT [3-(4,5-dimethylthiazol-2-yl)-2,5-diphenyltetrazolium bromide] into an insoluble purple formazan by the action of mitochondrial reductase. Formazan is then solubilized and its concentration is determined by measuring the optical density (OD) value at a wavelength of 570 nm. The value is in proportional to the number of live cells with excellent linearity up to ˜10^6 cells per well. The MTT assay was used to determine the EC50 value, the concentration of a compound that leads to 50% inhibition of cellular proliferation. Briefly, cells were split when growing to the mid-Log phase. Cells in 100 μL of culture medium were seeded into each well of 96-well microplates and cultivated for 15˜24 hours to reach a confluence of 20˜30% and were then exposed to drugs at concentrations ranging from 1 nM to 10 μM. At the endpoint, 20 μL of a MTT stock solution in DMSO (5 mg/mL) was added to each well that contains […] of DMEM. The microplates were left in the cell culture incubator for 3˜4 h before subjected to solubilization and determination of formazan at A570 in a microplate reader (BioTek ELX808iu). […] Therefore, these compounds might hold a broad utility in the treatment of a large variety of human malignancies.

[21] = system: lung cancer cell line NCI-H460; assay: Minimal effective concentration that elicits polyploidy, NCI-H460; format: cell-based, human
[22] = system: prostate cancer cell line DU145; assay: MTT assay of cellular proliferation, DU145; format: cell-based; settings: Homo sapiens, DU-145, read-out: EC50: Concentration that inhibits 50% of proliferation
Procedure: as §3, §4

[23] = system: lung cancer cell line Calu-6; assay: Minimal effective concentration that elicits polyploidy, Calu-6; format: cell-based, human
[24] = system: lung cancer cell line Calu-6; assay: MTT assay of cellular proliferation, Calu-6; format: cell-based; settings: Homo sapiens, read-out: EC50: Concentration that inhibits 50% of proliferation
Procedure: as §3, §4

[25] = system: lung cancer cell line NCI-H2170; assay: Minimal effective concentration that elicits polyploidy, NCI-H2170; format: cell-based, human
[26] = system: glioblastoma cell line T98G; assay: Minimal effective concentration that elicits polyploidy, T98G; format: cell-based, human
[27] = system: lung cancer cell line NCI-H596; assay: Minimal effective concentration that elicits polyploidy, NCI-H596; format: cell-based, human
[28] = system: lung cancer cell line NCI-H2170; assay: MTT assay of cellular proliferation, NCI-H2170; format: cell-based; settings: Homo sapiens, read-out: EC50: Concentration that inhibits 50% of proliferation
Procedure: as §3, §4

[29] = system: prostate cancer cell line DU145; assay: Minimal effective concentration that elicits polyploidy, DU145; format: cell-based, human
[30] = system: lung cancer cell line NCI-H460; assay: MTT assay of cellular proliferation, NCI-H460; format: cell-based; settings: Homo sapiens, read-out: EC50: Concentration that inhibits 50% of proliferation
Procedure: as §3, §4

[31] = system: lung cancer cell line NCI-H596; assay: MTT assay of cellular proliferation, NCI-H596; format: cell-based; settings: Homo sapiens, read-out: EC50: Concentration that inhibits 50% of proliferation
Procedure: as §3, §4

Row | Structure (SMILES) | EC50 [2] [nM] | minimal effective concentration [3] [µM] | minimal effective concentration [4] [µM] | minimal effective concentration [5] [µM] | minimal effective concentration (RPEMYC^H2B-GFP cells [6]) [µM] | EC50 [7] [nM] | EC50 [8] [nM] | minimal effective concentration (RPEMYC^H2B-GFP cells [9]) [µM] | minimal effective concentration (SW480) [µM] | EC50 [11] [nM] | minimal effective concentration [12] [µM] | minimal effective concentration [13] [µM] | EC50 [14] [nM] | EC50 [15] [nM] | minimal effective concentration [16] [µM] | minimal effective concentration [17] [µM] | EC50 [18] [nM] | EC50 [19] [nM] | further results
1 | CNC(=O)c1cc(Oc2ncccc2-c2ccnc(OC)c2)cc(OC(F)(F)F)c1 [Compound 29, 3-((2′-methoxy-[3,4′-bipyridin]-2-yl)oxy)-N-methyl-5-(trifluoromethoxy)benzamide] | 1 to 1000 | 0.001 to 1 | 0.001 to 1 | 0.001 to 1 | 1 | 1 to 1000 | 1 to 1000 | 1 | 0.001 to 1 | 1 to 1000 | 0.001 to 1 | 0.001 to 1 | 1 to 1000 | 1 to 1000 | 0.001 to 1 | 0.001 to 1 | 1 to 1000 | 1 to 1000 | tumor growth (tumor volume) [1]: suppress the growth; also recorded: suppressing the tumor growth; tumor growth (tumor volume) [10]: suppress the growth; also recorded: suppressing the tumor growth
2 | COc1cc(OC)cc(Oc2ncccc2-c2ccnc(N)n2)c1 [Compound 19, 4-(2-(3,5-dimethoxyphenoxy)pyridin-3-yl)pyrimidin-2-amine] | 1 to 1000 | 0.001 to 1 | 0.001 to 1 | 1 to 10 | 1 | 1000 to 10000 | 1 to 1000 | 1 |  | 1 to 1000 | 0.001 to 1 | 0.001 to 1 | 1 to 1000 | 1 to 1000 | 0.001 to 1 | 0.001 to 1 | 1 to 1000 |  | EC50 [20]: 1 to 1000 nM; MECP: Minimal effective concentration that elicits polyploidy [21]: A (A: 1 nM < conc. ≤ 1 μM); EC50 [22]: 1000 to 10000 nM; MECP: Minimal effective concentration that elicits polyploidy [23]: A (A: 1 nM < conc. ≤ 1 μM); EC50 [24]: 1 to 1000 nM; MECP: Minimal effective concentration that elicits polyploidy [25]: A (A: 1 nM < conc. ≤ 1 μM); MECP: Minimal effective concentration that elicits polyploidy [26]: A (A: 1 nM < conc. ≤ 1 μM); MECP: Minimal effective concentration that elicits polyploidy [27]: A (A: 1 nM < conc. ≤ 1 μM); EC50 [28]: 1 to 1000 nM; MECP: Minimal effective concentration that elicits polyploidy [29]: B (B: 1 μM < conc. ≤ 10 μM); EC50 [30]: 1000 to 10000 nM; EC50 [31]: 1 to 1000 nM
3 | COc1cc(OC)cc(Oc2ncccc2-c2ccncc2)c1 [Compound 14, 2-(3,5-dimethoxyphenoxy)-3,4′-bipyridine] | 1 to 1000 | 0.001 to 1 | 0.001 to 1 | 0.001 to 1 | 1 | 1 to 1000 | 1 to 1000 | 1 | 0.001 to 1 | 1 to 1000 | 0.001 to 1 | 0.001 to 1 | 1 to 1000 | 1 to 1000 | 0.001 to 1 | 0.001 to 1 | 1 to 1000 | 1 to 1000 | 
